Results taken from publication PMC3199867, “Targeting surface nucleolin with multivalent HB-19 and related Nucant pseudopeptides results in distinct inhibitory mechanisms depending on the malignant tumor cell type” (BMC Cancer, 2011).
Where no end group is shown, it is not given here.

Legend:
HuT 78 = assay: Cell death (trypan blue uptake); assay type: cell-based, human; settings: HuT 78 cells, 15 μM, after 24 of culture
Description: Human breast (MDA-MB-231, MDA-MB-435 [37]), prostate (LNCaP, from American Type Culture Collection, ATCC, Rockville, MD), and cervical (HeLa) epithelial cancer cells were grown in DMEM-glutamax medium (Gibco Invitrogen, Cergy-Pontoise, France) containing GlutaMAX™, 4.5 g/l glucose and supplemented with 10% heat-inactivated (56°C for 30 min) fetal bovine serum (FBS; Hyclone, Thermo Fisher Scientific, Inc). Human SW480 cells are derived from a grade 3-4 colon carcinoma, while the highly metastatic counterpart SW620 is established from the lymph node of a person. Both SW480 and SW620 cells (obtained from Francis Raul, IRCAD) are highly tumorigenic in nude mice. They were cultured in D-MEM, 10% FCS. The murine melanoma TIII cell line was obtained from Armelle Prévost-Blondel. Murine T29 lymphoma cells, obtained from Philippe Kastner (CNRS, Strasbourg), have been established from Ik^L/L tumors from mice carrying a hypomorphic mutation (Ik^L/L) in the Ikaros gene encoding a transcription factor that regulates lymphocyte differentiation, and acts also as a tumor suppressor in T lymphocytes. The T29 cells were cultured in RPMI medium containing 25 mM Hepes pH 7.6, 1 mM sodium pyruvate, and 10% FCS. Human leukemia cell lines, Jurkat (acute T cell leukemia), HuT 78 (cutaneous T lymphocyte), RAJI (Burkitt lymphoma), and HL60 (promyelocytic leukemia) were cultured in RPMI-1640 medium (Gibco) containing GlutaMAX™, and supplemented with 10% heat-inactivated FBS as described before. The wild-type Chinese hamster ovary cell line (CHO K1) was purchased from American Type Culture Collection (ATCC; Rockville, MD). The CHO LRP1-null cell line (CHO-13-5-1) was kindly provided by D. Strickland [47]. They were cultured in Ham's F12K medium. All cells were cultured with 10% (v/v) heat inactivated (56°C, 30 min) fetal bovine serum (FBS) (Roche Molecular Biochemicals, Indianapolis, IN) and 50 international units/mL penicillin-streptomycin (Invitrogen). Cell death was monitored conveniently by uptake of the trypan blue dye due to plasma membrane permeability of dying and/or dead cells. […]

surface nucleolin [1] = assay: Binding of biotinylated Nucant to surface nucleolin on MDA-MB 231 cells (avidin recovery, immunoblotting); parameters: species or system human; settings: data not presented
Description: (§1) Two days after seeding, subconfluent cells (about 5 × 10^6 cells/75 cm^2 flask) were incubated (45 min, 20°C) with 5 μM of HB-19/Btn. After washing extensively in PBS containing 1 mM EDTA (PBS-EDTA), nucleus-free cell extracts were prepared in lysis buffer E. The complex formed between cell-surface expressed nucleolin and HB-19/Btn was isolated by purification of the extracts using NeutrAvidin agarose (100 μl; Pierce Biotechnology) in PBS-EDTA. After 3 hours at 6°C, the avidin-agarose samples were washed extensively with PBS-EDTA. The purified surface nucleolin was eluted in the electrophoresis sample buffer containing SDS and analyzed by 10% SDS-polyacrylamide gel electrophoresis (SDS-PAGE). […] All cells investigated in this study (MDA-MB-231, MDA-MB-435, LNCaP, HeLa, SW480, SW620, and T29) expressed the cell surface nucleolin assayed by this procedure.
(§2) Figure 9 Nucant pseudopeptides bind surface nucleolin at a higher affinity compared to binding to nucleophosmin. A. Recovery of surface nucleolin and associated proteins by using biotinylated Nucant. […] Purified material was then analyzed by SDS-PAGE and stained with Brilliant Blue G-Colloidal Concentrate staining (panel Staining). Similar samples were also analyzed by immunoblotting using anti-nucleolin mAb D3 (panel anti-nucleolin) or anti-nucleophosmin mAb EP1848Y (panel anti-nucleophosmin)(Methods). […]

surface nucleolin [2] = assay: Binding of biotinylated Nucant to surface nucleolin on HuT 78 cells (avidin recovery, immunoblotting); parameters: species or system human; settings: HuT 78 cells, 0, 1, 2, 4, 8 μM
Description: as §1, §2

nucleophosmin = assay: Binding of biotinylated Nucant to nucleophosmin on HuT 78 cells (avidin recovery, immunoblotting); parameters: species or system human; settings: HuT 78 cells, 0, 1, 2, 4, 8 μM
Description: as §1, §2

HuT 78 cells = assay: Cell entry and localization of biotinylated pseudopeptides, immunofluorescence; assay type: cell-based, human; settings: HuT 78, 15 μM, 37°C, 5 hours, PFA/Triton fixation, anti-biotin immunofluorescence
Description: Figure 8 Nucant pseudopeptides are internalized into cells and accumulate in the cytoplasm without translocation to the nucleus. […] C. […] The nuclei stained with DAPI are shown on the right of each panel. Treatment of HuT 78 cells at 15 μM of biotinylated N3 or N7 leads to 25 and 40% cell death after 24 of culture, respectively.

With “biotinylated N7: biotinylated hexavalent N7 pseudopeptide (chain 1 KAKPGKAKPGKAKPG; chain 2 Lys-Pro-Arg; also: biotinylated (site not given here), hexavalent branched pseudopeptide, linkage not given here)” the cell death (HuT 78) was 40%, the “concentration of maximum binding to surface nucleolin” value (surface nucleolin [1]) was 3 µM and the “concentration of maximum binding to surface nucleolin” value (surface nucleolin [2]) was 4 µM. For the same substance, the “concentration at which nucleophosmin binding occurs” value (nucleophosmin) was 8 µM and the “cell entry / intracellular localization” value (HuT 78 cells) was “most of the signal is located in the cytoplasm, with almost no signal in the nuclei”.
